Reference: US6087119A, “Method for determining the catalytic activity of factor IXa” (Roche Diagnostics GmbH, priority 1996, dated 2000)

Target: native FIXa (human) (Homo sapiens, UniProt P00740)
Test: Determination of the dissociation constant Ki according to DIXON, native FIXa
Format: biochemical
Parameters: 0.14 μmol/l native FIXa (human)
Conditions: pH 8.5, 33% ethylene glycol; for 1/V: 0.07 μmol/l native FIXa
Procedure: Determination of the Dissociation Constant Ki According to the Method of DIXON
42 mmol/l Tris-HCl, pH 8.5
inhibitor in stepped concentrations (0, 20.4 and 40.8 μmol/l) […]
0.07 μmol/l native FIXa (human)
TIPPS-(3-Am)Phe-iNip-OH was used as the inhibitor and the inhibitory effect was determined as an example for two substrates under optimal conditions (pH 8.5, 33% ethylene glycol).

native FIXa (human), sequence (P00740 227-461 limits assumed): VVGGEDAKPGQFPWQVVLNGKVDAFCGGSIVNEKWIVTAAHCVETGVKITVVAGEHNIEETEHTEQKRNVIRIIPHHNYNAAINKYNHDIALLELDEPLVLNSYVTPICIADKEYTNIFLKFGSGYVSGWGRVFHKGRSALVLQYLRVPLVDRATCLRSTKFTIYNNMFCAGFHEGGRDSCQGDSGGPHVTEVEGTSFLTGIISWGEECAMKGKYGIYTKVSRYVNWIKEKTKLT
native FIXa (human), sequence (P00740 47-191 partner limits assumed): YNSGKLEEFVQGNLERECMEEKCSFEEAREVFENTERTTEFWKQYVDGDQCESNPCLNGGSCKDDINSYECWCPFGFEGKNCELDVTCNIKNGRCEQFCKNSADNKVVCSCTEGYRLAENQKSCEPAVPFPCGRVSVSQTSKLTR

With CC(C)c1cc(C(C)C)c(S(=O)(=O)NC(Cc2cccc(C(=N)N)c2)C(=O)N2CCC(C(=O)O)CC2)c(C(C)C)c1 (stereo not shown) [TIPPS-(3-Am)Phe-iNip-OH, Nα-(2,4,6-triisopropylbenzenesulfonyl)-3-amidino-(D,L)-phenylalanine-isonipecotic acid] the 1/V (inhibitor 20.4 μmol/l, MeSO2-D-HHT-Gly-Arg-pNA 0.25 μmol/l) was 129 min/mA, the 1/V (inhibitor 20.4 μmol/l, MeSO2-D-HHT-Gly-Arg-pNA 0.51 μmol/l) was 77.5 min/mA and the 1/V (inhibitor 20.4 μmol/l, MeSO2-D-HHT-Gly-Arg-pNA 1.02 μmol/l) was 29.5 min/mA. For the same compound, the 1/V (inhibitor 40.8 μmol/l, MeSO2-D-HHT-Gly-Arg-pNA 0.25 μmol/l) was 255 min/mA, the 1/V (inhibitor 40.8 μmol/l, MeSO2-D-HHT-Gly-Arg-pNA 0.51 μmol/l) was 154 min/mA and the 1/V (inhibitor 40.8 μmol/l, MeSO2-D-HHT-Gly-Arg-pNA 1.02 μmol/l) was 53.2 min/mA. It also gave a Ki (native FIXa, substrate MeSO2-D-HHT-Gly-Arg-pNA) of 9 µM.
